Assay results published in patent publication US9193673B2, “Derivatives of mesalazine, process of their preparation and their use in the treatment of intestinal inflammatory diseases” (SOFAR SPA, priority 2010, dated 2015).
Values joined by “and” are separate entries in the source; they are usually repeats but may differ in a detail not shown here. Identical values can stand only once. “Also recorded” adds a separate entry of the source.

Columns and labels:
[1] = Stability of the compound (IV) in storage at 25° C. (60% RH) and at 40° C. (75% RH); type: physicochemical; conditions: for Titre % Mean / Titre %: 3 months; for Titre % Mean: mean of samples; for Titre %: single samples
Method: The object of such study is the evaluation of the stability of the compound (IV) kept at a temperature equivalent to 25° C. (60% RH) and at 40° C. (75% RH). In particular, such study aims at evaluating the titre of the compound (IV) in the stability test at 25° C. (60% RH) at 3, 6, 9, 12, 18, 24, 36, 48, 60 months and in the stability test accelerated at 40° C. (75% RH) at 3, 6, 9, 12 months.
The compound (IV) is divided into 10 Eppendorfs numbered from 1 to 10, containing about 50 mg of product and stored in a cellar at 25° C. 60% RH.
Other 4 Eppendorfs numbered from 11 to 14, containing about 50 mg of product are introduced into an oven at a temperature equivalent to 40° C. 75% RH.

[2] = Hydrolysis in rat intestine preserved in different conditions; type: in vitro ADME
Method: Such study is conducted with the aim of surveying the stability of the compound (IV) in rat intestine homogenate preserved in different conditions: frozen at […] and at −80° C.
The stability of the compound (IV) is compared to that of known reference standards.

Compound: CCCC(=O)Oc1ccc(N)cc1C(=O)O.Cl [Compound (IV), 5-amino-2-(butyryloxy)benzoic acid]
- Stability in storage ([1]; 25° C. 60% RH and 40° C. 75% RH): does not seem to be subjected to considerable modifications; also recorded: stable in storage
- Titre % Mean ([1]; 25° C. 60% RH): 98.1%
- Titre % ([1]; 25° C. 60% RH): 98.2% and 98.1%
- Titre % Mean ([1]; 40° C. 75% RH): 101.2%
- Titre % ([1]; 40° C. 75% RH): 99.8% and 102.6%
- Titre ([1]; time t=0): 99.3%
- Metabolism in fresh rat intestine homogenate ([2]; fresh homogenate): metabolised quickly
- Stability in rat intestine (residue %) ([2]; fresh homogenate, 15 min): 0.030 ± 0.015%
- Stability in rat intestine (residue %) ([2]; fresh homogenate, 30 min): 0.031 ± 0.004%
- Stability in rat intestine (residue %) ([2]; fresh homogenate, 60 min): 0.047 ± 0.021%
- Stability in rat intestine (residue %) ([2]; homogenate 4° C., 15 min): 0.046 ± 0.004%
- Stability in rat intestine (residue %) ([2]; homogenate 4° C., 30 min): 0.046 ± 0.022%
- Stability in rat intestine (residue %) ([2]; homogenate 4° C., 60 min): 0.064 ± 0.008%
- Stability in rat intestine (residue %) ([2]; homogenate −80° C., 15 min): 0.024 ± 0.007%
- Stability in rat intestine (residue %) ([2]; homogenate −80° C., 30 min): 0.034 ± 0.001%
- Stability in rat intestine (residue %) ([2]; homogenate −80° C., 60 min): 0.470 ± 0.012%
- Stability in rat intestine (residue %) ([2]; intestine −80° C., 15 min): 0.145 ± 0.029%
- Stability in rat intestine (residue %) ([2]; intestine −80° C., 30 min): 0.091 ± 0.038%
- Stability in rat intestine (residue %) ([2]; intestine −80° C., 60 min): 0.098 ± 0.002%
